Source: article PMC9949657 (PLOS ONE, 2023)

Experiments:
[1] = tested on: rat collagen-induced arthritis (CIA) model; experiment: Rat CIA model, hind paw volume; type: in vivo; set-up: unit not given beside the values; conditions: Prednisolone 1 mg/kg oral once daily
Method: For the rat CIA model, experimental arthritis was induced and volumes of both hind paws were measured as previously described.

[2] = tested on: mouse collagen-induced arthritis (CIA) model; experiment: Mouse CIA model, arthritis score (15-day treatment); type: in vivo; conditions: Prednisolone 3 mg/kg oral once daily
Method: (§1) For the mouse CIA model, male DBA/1JNCrlj mice (7 weeks old) were injected with complete Freund’s adjuvant (CFA) (BD Biosciences) containing 2 mg/mL of bovine type II collagen at a site on the back (each 0.1 mL) and were boosted 21 days later in a similar manner. Arthritis scores were determined as previously reported.

[3] = tested on: mouse collagen-induced arthritis (CIA) model; experiment: Histopathological evaluation in the mouse CIA model; type: in vivo; conditions: Prednisolone 3 mg/kg oral, 15 days
Method: as §1
On the day after the final administration, the four limbs of each mouse were harvested and decalcified in […]. The specimens were then embedded in paraffin blocks, cut into sections, stained with hematoxylin and eosin, and randomly selected for microscopic examination. Histopathological assessments were performed as described previously. This experiment was carried out in the laboratory of the BoZo Research Center Inc. (Ibaraki, Japan).

[4] = tested on: mouse collagen-induced arthritis (CIA) model; experiment: Mouse CIA model, arthritis score of hind paws (21-day treatment); type: in vivo; conditions: Prednisolone 3 mg/kg oral once daily
Method: as §1

[5] = tested on: mouse collagen-induced arthritis (CIA) model; experiment: Micro-CT imaging in the CIA model (BMD); type: in vivo; conditions: for BMD: Prednisolone 3 mg/kg oral once daily
Method: as §1
The bone morphology of CIA mice was evaluated via micro-CT using Cosmo Scan (Rigaku, Tokyo, Japan). Hind paws of the mice were scanned using the following scanning conditions: 90 kV; 88 μA; field of view, 25 mm; 2 min. The BMD was calculated using the Analyze version 11.0 software (Biomedical Imaging Resource, Mayo Clinic, Rochester, MN). The bone was determined to have a BMD value ≥480 mg/cm^3, and the region of interest for calculating the BMD included the talus and cuboid. BMD was calibrated using a QRM-MicroCT-HA phantom (Quality Assurance in Radiology and Medicine, Moehrendorg, Germany) that was scanned on each day when micro-CT of animals was performed. Calibration was performed via scanning phantoms with densities of 0, 50, 200, 800, and 1200 mg HA/cm^3, and data analysis was performed using the Analyze11.0 Bone Mineral Density Analysis procedure.

[6] = tested on: ovariectomized cynomolgus monkeys; set-up: method as in PMID 21497676; conditions: cited from earlier work
[7] = tested on: patients with RA; set-up: method as in PMID 31036625; conditions: compared with placebo, clinical trials for RA; cited from earlier work

C[C@]12C=CC(=O)C=C1CC[C@@H]1[C@@H]2[C@@H](O)C[C@@]2(C)[C@H]1CC[C@]2(O)C(=O)CO [Prednisolone, prednisolone]
Hind paws volume ([1]; day 0): 2.1
Hind paws volume ([1]; day 4): 2.12
Hind paws volume ([1]; day 7): 2.09
Hind paws volume ([1]; day 11): 2.16
Hind paws volume ([1]; day 14): 2.18
Hind paws volume ([1]; day 18): 2.25
Hind paws volume ([1]; day 21): 2.37
Arthritis score ([2]; day 1): 6.63
Arthritis score ([2]; day 4): 7.88
Arthritis score ([2]; day 8): 8.38
Arthritis score ([2]; day 11): 7.88
Arthritis score ([2]; day 15): 2.88
Histological score, Bone damage [3]: 3.50
Histological score, Cartilage damage [3]: 4.75
Histological score, Inflammation [3]: 5.25
Histological score, Pannus [3]: 4.13
Arthritis score of hind paws ([4]; day 1): 7.33
Arthritis score of hind paws ([4]; day 8): 6.58
Arthritis score of hind paws ([4]; day 14): 5.75
Arthritis score of hind paws ([4]; day 22): 4.75
BMD ([5]; day 1): 957.82 mg/mL
BMD ([5]; day 8): 961.86 mg/mL
BMD ([5]; day 14): 984.25 mg/mL
BMD ([5]; day 22): 1000.83 mg/mL
decline in BMD, effect compared with vehicle ([5]; Prednisolone 3 mg/kg/day, 21 days): did not exhibit significant therapeutic effects

denosumab: anti-human RANKL monoclonal antibody
BMD and bone strength [6]: improved
bone erosion progression [7]: inhibited
